Results taken from patent US20200281202A1 (priority 2017, published 2020).

What was measured:
Plasmopara viticola = Plasmopara viticola test in grape, preventive; format: in vivo; conditions: Plasmopara viticola, 50 ppm spray, grape seedlings inoculated one day after treatment, read-out: control (disease severity) compared to the untreated check
Method: Example B: Plasmopara viticola Test in Grape
Compounds were dissolved in 2% DMSO/Acetone & then mixed with water to calibrated spray volume of 50 ml. This 50 ml spray solution was poured into the spray bottles for further applications.
To test the preventive activity of compounds, five week old healthy grape seedlings raised in the greenhouse were sprayed with active compound preparation at the stated application rates inside the spray cabinets using hallow-cone nozzles. One day after treatment, the plants were inoculated with inoculum suspension (Cold sterile water) containing 6×10^6 Plasmopara viticola inoculum. The inoculated plants were then kept in greenhouse chamber at 18-21° C. temperature and 95-100% relative humidity for disease expression. Compounds
A visual assessment of compound's performance was carried by rating the disease severity (0-100% scale) on treated plants on 3, 7, 10 and 15 days after application. Efficacy (% control) of the compounds was calculated by comparing the disease rating in the treatment with untreated control. The sprayed plants were also assessed for compound's phytotoxic effects by recording symptoms like necrosis, chlorosis and stunting.

Phytophthora infestans [1] = experiment: whole plant or invertebrate; format: in vivo; conditions: Phytophthora infestans, in Solanum lycopersicum, read-out: control (disease severity) compared to the untreated check
Phytophthora infestans [2] = experiment: microbe, parasite or virus in culture; format: cell-based; conditions: Phytophthora infestans, 168 h, read-out: control (radial growth) compared to the untreated check

SMILES | pest or weed control at 50 ppm (Plasmopara viticola) | pest or weed control at 50 ppm (Phytophthora infestans [1]) | inhibition of growth at 30 ppm (Phytophthora infestans [2])
O=C(COc1ncccc1C(F)(F)F)N1CCC(c2nc(C3=NOC(c4ccccc4F)C3)cs2)CC1 (stereo not drawn) [Compound 66, 1-(4-(4-(5-(2-fluorophenyl)-4,5-dihydroisoxazol-3-yl)thiazol-2-yl)piperidin-1-yl)-2-((3-(trifluoromethyl)pyridin-2-yl)oxy)ethan-1-one] | 90% | 90% | 70%
Cc1cccnc1OCC(=O)N1CCC(c2nc(C3=NOC(c4c(Cl)cccc4Cl)C3)cs2)CC1 (stereo not drawn) [Compound 76, 1-(4-(4-(5-(2,6-dichlorophenyl)-4,5-dihydroisoxazol-3-yl)thiazol-2-yl)piperidin-1-yl)-2-((3-methylpyridin-2-yl)oxy)ethan-1-one] | 90% | 90% | 70%
Cc1cccnc1OCC(=O)N1CCC(c2nc(C3=NOC(c4c(F)cccc4F)C3)cs2)CC1 (stereo not drawn) [Compound 77, 1-(4-(4-(5-(2,6-difluorophenyl)-4,5-dihydroisoxazol-3-yl)thiazol-2-yl)piperidin-1-yl)-2-((3-methylpyridin-2-yl)oxy)ethan-1-one] | 90% | 90% | 70%
Cc1cccnc1OCC(=O)N1CCC(c2nc(C3=NOC(c4c(Cl)cc(Cl)cc4Cl)C3)cs2)CC1 (stereo not drawn) [Compound 79] | 90% | 90% | 70%
O=C(COc1ncccc1C(F)F)N1CCC(c2nc(C3=NOC(c4c(F)cccc4F)C3)cs2)CC1 (stereo not drawn) [Compound 86, 2-((3-(difluoromethyl)pyridin-2-yl)oxy)-1-(4-(4-(5-(2,6-difluorophenyl)-4,5-dihydroisoxazol-3-yl)thiazol-2-yl)piperidin-1-yl)ethan-1-one] | 90% | 90% | 70%
O=C(COc1ncccc1C(F)F)N1CCC(c2nc(C3=NOC(c4c(Cl)cc(Cl)cc4Cl)C3)cs2)CC1 (stereo not drawn) [Compound 87] | 90% | 90% | 70%
